In the assay the target is T1, human B-Raf (Homo sapiens, UniProt P15056).
T1 construct: Flag; GST; made in house; host or cells: Sf9 insect cells (B-Raf); E. coli (MEK1-GST)
Briefly: B-Raf Kinase to MEK1 ELISA. It counts as biochemical. The following applies: for inhibition at 10 µM: read-out: % Inhib./10 uM. The gist of the method: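 Read-out is a DELFIA europium signal from phospho-MEK1 (Ser217/221) antibody after capture of GST-MEK1 (50 nM final) on anti-GST plates. Phosphorylation comes from Sf9-expressed Flag/GST human B-Raf (~20 ng) with ATP/MgCl2, 60 min RT, pH 7.2 MOPS.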
(In an ELISA, binding on a coated surface is turned into a signal by an enzyme label.)

Setting [1] is: median, cpd concentrations from 10 μM to 30 nM in half log dilutions, read-out: Median IC50.

Each structure is given as a SMILES string. Like-named read-outs stand apart in the source and are kept apart here. Bounds are passed on as bounds.

T1 sequence (P15056 whole entry): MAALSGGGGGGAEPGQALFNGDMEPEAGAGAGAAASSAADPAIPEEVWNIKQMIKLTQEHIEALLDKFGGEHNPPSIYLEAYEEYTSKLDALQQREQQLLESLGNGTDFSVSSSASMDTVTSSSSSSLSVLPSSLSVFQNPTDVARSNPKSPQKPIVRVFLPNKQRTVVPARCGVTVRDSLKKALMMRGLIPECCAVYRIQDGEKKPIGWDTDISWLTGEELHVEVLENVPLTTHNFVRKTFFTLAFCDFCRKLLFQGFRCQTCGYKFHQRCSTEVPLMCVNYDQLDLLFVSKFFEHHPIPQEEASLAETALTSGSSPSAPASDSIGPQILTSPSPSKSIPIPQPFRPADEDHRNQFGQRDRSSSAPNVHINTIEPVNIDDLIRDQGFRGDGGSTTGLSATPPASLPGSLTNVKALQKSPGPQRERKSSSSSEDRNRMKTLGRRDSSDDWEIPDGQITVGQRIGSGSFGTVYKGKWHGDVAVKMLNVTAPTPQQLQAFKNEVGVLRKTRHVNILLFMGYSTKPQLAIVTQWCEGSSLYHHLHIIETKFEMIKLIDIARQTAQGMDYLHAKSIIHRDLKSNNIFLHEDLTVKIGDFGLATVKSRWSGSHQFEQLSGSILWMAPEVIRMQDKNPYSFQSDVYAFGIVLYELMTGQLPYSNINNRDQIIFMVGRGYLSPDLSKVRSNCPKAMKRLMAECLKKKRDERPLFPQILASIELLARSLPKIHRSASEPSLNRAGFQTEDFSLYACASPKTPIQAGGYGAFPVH

What is called IC50 is the concentration that gives 50% inhibition. `O=C(Nc1cccc(-c2ccnc3cc(-c4ccnc(NCCN5CCCCC5)c4)nn23)c1)c1cccc(C(F)(F)F)c1` [Example 264, N-[3-(2-{2-[(2-piperidin-1-ylethyl)amino]pyridin-4-yl}pyrazolo[1,5-a]pyrimidin-7-yl)phenyl]-3-(trifluoromethyl)benzamide]: the inhibition at 10 µM is 97%. Moreover, the IC50 under setting [1] was determined as 95.8 nM.
Regarding `CC(O)c1cccc(-c2cnn3c(-c4cccc(NC(=O)c5cccc(C(F)(F)F)c5)c4)ccnc23)c1` (stereo not shown) [Example 304, N-(3-{3-[3-(1-hydroxyethyl)phenyl]pyrazolo[1,5-a]pyrimidin-7-yl}phenyl)-3-(trifluoromethyl)benzamide], the inhibition at 10 µM is 80%. Besides, the IC50 under setting [1] was determined as 195 nM.
Turning to `O=C(Nc1cccc(-c2ccnc3c(-c4ccc(CO)cc4)cnn23)c1)c1cccc(C(F)(F)F)c1` [Example 285, N-(3-{3-[4-(hydroxymethyl)phenyl]pyrazolo[1,5-a]pyrimidin-7-yl}phenyl)-3-(trifluoromethyl)benzamide], inhibition was half-maximal at 82.5 nM (IC50) and the inhibition at 10 µM was found to be 93%.
For the molecule `O=C(Nc1cccc(-c2ccnc3c(-c4ccccn4)cnn23)c1)c1cccc(C(F)(F)F)c1` [Example 59, N-[3-(3-pyridin-2-ylpyrazolo[1,5-a]pyrimidin-7-yl)phenyl]-3-(trifluoromethyl)benzamide], the inhibition at 10 µM came out at 37%. Also, the IC50 under setting [1] was over 10000 nM.
Regarding `N#Cc1c(N2CCNCC2)nn2c(-c3cccc(NC(=O)c4cccc(C(F)(F)F)c4)c3)ccnc12` [Example 62, N-[3-(3-cyano-2-piperazin-1-ylpyrazolo[1,5-a]pyrimidin-7-yl)phenyl]-3-(trifluoromethyl)benzamide], the inhibition at 10 µM is 54%.
For `N#Cc1cccc(-c2cnn3c(-c4cccc(NC(=O)c5cccc(C(F)(F)F)c5)c4)ccnc23)c1` [Example 294, N-{3-[3-(3-cyanophenyl)pyrazolo[1,5-a]pyrimidin-7-yl]phenyl}-3-(trifluoromethyl)benzamide], the inhibition at 10 µM is 42%. Moreover, the IC50 under setting [1] is over 10000 nM.
In the case of `Cc1ccccc1-c1cnn2c(-c3cccc(NC(=O)c4cccc(C(F)(F)F)c4)c3)ccnc12` [Example 305, N-{3-[3-(2-methylphenyl)pyrazolo[1,5-a]pyrimidin-7-yl]phenyl}-3-(trifluoromethyl)benzamide], 893 nM corresponded to half-maximal inhibition (IC50) and the inhibition at 10 µM was 54%.
With `O=C(Nc1cccc(-c2ccnc3c(C(=O)NCCCn4ccnc4)cnn23)c1)Nc1ccc(Cl)c(C(F)(F)F)c1` [Example 120, 7-{3-[({[4-chloro-3-(trifluoromethyl)phenyl]amino}carbonyl)amino]phenyl}-N-[3-(1H-imidazol-1-yl)propyl]pyrazolo[1,5-a]pyrimidine-3-carboxamide], the inhibition at 10 µM was 92%. Besides, under setting [1], the IC50 came out at 120 nM.
On to `CCOC(=O)c1cnn2c(-c3cccc(NC(=O)c4ccc(Cl)cc4)c3)ccnc12` [Example 6, ethyl 7-{3-[(4-chlorobenzoyl)amino]phenyl}pyrazolo[1,5-a]pyrimidine-3-carboxylate], for which the inhibition at 10 µM worked out at 38%. Besides, under setting [1], the IC50 was over 20000 nM.
With `CCOC(=O)c1cnn2c(-c3cccc(NC(=O)c4cccc(C)c4)c3)ccnc12` [Example 242, ethyl 7-{3-[(3-methylbenzoyl)amino]phenyl}pyrazolo[1,5-a]pyrimidine-3-carboxylate], the inhibition at 10 µM worked out at 20%. In addition, the IC50 under setting [1] was over 10000 nM.
For `CN(C)CCc1cccc(-c2cnn3c(-c4cccc(NC(=O)c5cccc(C(F)(F)F)c5)c4)ccnc23)c1` [Example 281, N-[3-(3-{3-[2-(dimethylamino)ethyl]phenyl}pyrazolo[1,5-a]pyrimidin-7-yl)phenyl]-3-(trifluoromethyl)benzamide], the inhibition at 10 µM was determined as 98%. The IC50 under setting [1] is 40.7 nM.
For the molecule `NC(=O)c1cccc(-c2cnn3c(-c4cccc(NC(=O)c5cccc(C(F)(F)F)c5)c4)ccnc23)c1` [Example 271, N-(3-{3-[3-(aminocarbonyl)phenyl]pyrazolo[1,5-a]pyrimidin-7-yl}phenyl)-3-(trifluoromethyl)benzamide], the IC50 is 57 nM and the inhibition at 10 µM was determined as 93%.
On to `Cn1cc(-c2cnn3c(-c4cccc(NC(=O)c5cccc(C(F)(F)F)c5)c4)ccnc23)cn1` [Example 308, N-{3-[3-(1-methyl-1H-pyrazol-4-yl)pyrazolo[1,5-a]pyrimidin-7-yl]phenyl}-3-(trifluoromethyl)benzamide], for which the inhibition at 10 µM came to 86%. Also, the IC50 under setting [1] turned out to be 281 nM.
Molecule `COc1cccc(C(=O)Nc2cccc(-c3ccnc4cc(-c5ccncc5)nn34)c2)c1` [Example 146, 3-methoxy-N-[3-(2-pyridin-4-ylpyrazolo[1,5-a]pyrimidin-7-yl)phenyl]benzamide] had an IC50 of 4000 nM.
Consider `O=C(Nc1cccc(-c2ccnc3cc(-c4ccncc4)nn23)c1)Nc1ccc(Cl)c(C(F)(F)F)c1` [Example 133, N-[4-chloro-3-(trifluoromethyl)phenyl]-N′-[3-(2-pyridin-4-ylpyrazolo[1,5-a]pyrimidin-7-yl)phenyl]urea], for which the IC50 under setting [1] came to 30 nM. Where the note is “single point assay, 10 uM”, the “% Inhib./10 uM” value is recorded as 98%.
`O=C(Nc1cccc(-c2ccnc3cc(-c4ccncc4)nn23)c1)c1ccc(Br)s1` [Example 239, 5-bromo-N-[3-(2-pyridin-4-ylpyrazolo[1,5-a]pyrimidin-7-yl)phenyl]thiophene-2-carboxamide]: the inhibition at 10 µM turned out to be 86%. Further, under setting [1], the IC50 amounted to 200 nM.
Take `O=C(Nc1cccc(-c2ccnc3c(-c4ccnc(Cl)c4)cnn23)c1)c1cccc(C(F)(F)F)c1` [Example 301, N-{3-[3-(2-chloropyridin-4-yl)pyrazolo[1,5-a]pyrimidin-7-yl]phenyl}-3-(trifluoromethyl)benzamide]: the IC50 was determined as 1730 nM and the inhibition at 10 µM was 75%.
For the molecule `O=C(Nc1cccc(-c2ccnc3c(-c4cccnc4)cnn23)c1)c1ccc(F)c(C(F)(F)F)c1` [Example 171, 4-fluoro-N-[3-(3-pyridin-3-ylpyrazolo[1,5-a]pyrimidin-7-yl)phenyl]-3-(trifluoromethyl)benzamide], the inhibition at 10 µM worked out at 87%. In addition, the IC50 under setting [1] amounted to 380 nM.
As to `CN(C)CC(=O)Nc1ccc(-c2cnn3c(-c4cccc(NC(=O)c5cccc(C(F)(F)F)c5)c4)ccnc23)cc1` [Example 230, N-[3-(3-{4-[(N,N-dimethylglycyl)amino]phenyl}pyrazolo[1,5-a]pyrimidin-7-yl)phenyl]-3-(trifluoromethyl)benzamide], the IC50 under setting [1] was 49 nM. For the setting “single point assay, 10 uM”, the inhibition at 10 µM turned out to be 93%.
For the molecule `CCOC(=O)c1cnn2c(-c3cccc(NC(=O)Cc4cccc(Br)c4)c3)ccnc12` [Example 92, ethyl 7-(3-{[(3-bromophenyl)acetyl]amino}phenyl)pyrazolo[1,5-a]pyrimidine-3-carboxylate], the inhibition at 10 µM stood at 97%. Also, under setting [1], the IC50 was over 10000 nM.
Turning to `O=C(Nc1cccc(-c2ccnc3c(Br)cnn23)c1)c1ccc(F)c(C(F)(F)F)c1` [Example 163, N-[3-(3-bromopyrazolo[1,5-a]pyrimidin-7-yl)phenyl]-4-fluoro-3-(trifluoromethyl)benzamide], the inhibition at 10 µM is 74%. The IC50 under setting [1] amounted to 4200 nM.
Take `O=C(Nc1cccc(-c2ccnc3c(-c4cn[nH]c4)cnn23)c1)c1cccc(C(F)(F)F)c1` [Example 275, N-{3-[3-(1H-pyrazol-4-yl)pyrazolo[1,5-a]pyrimidin-7-yl]phenyl}-3-(trifluoromethyl)benzamide]: 84 nM corresponded to half-maximal inhibition (IC50) and the inhibition at 10 µM was 89%.
For the molecule `Cc1ccc(-c2cnn3c(-c4cccc(NC(=O)c5cccc(C(F)(F)F)c5)c4)ccnc23)cc1` [Example 160, N-{3-[3-(4-methylphenyl)pyrazolo[1,5-a]pyrimidin-7-yl]phenyl}-3-(trifluoromethyl)benzamide], the inhibition at 10 µM came to 51%.
On to `CCOC(=O)c1cnn2c(-c3cccc(NC(=O)c4cc(C(C)(C)C)cc(C(C)(C)C)c4)c3)ccnc12` [Example 227, ethyl7-{3-[(3,5-di-tert-butylbenzoyl)amino]phenyl}pyrazolo[1,5-a]pyrimidine-3-carboxylate], for which the inhibition at 10 µM is 54%. For the same molecule, the IC50 under setting [1] was determined as 1600 nM.
Turning to `CCOC(=O)c1cnn2c(-c3cccc(NC(=O)Nc4ccc(Cl)cc4)c3)ccnc12` [Example 34, ethyl 7-[3-({[(4-chlorophenyl)amino]carbonyl}amino)phenyl]pyrazolo[1,5-a]pyrimidine-3-carboxylate], the inhibition at 10 µM was determined as 37%. Besides, the IC50 under setting [1] is over 10000 nM.
With `CCOC(=O)c1cnn2c(-c3cccc(NC(=O)Nc4ccc(Br)cc4)c3)ccnc12` [Example 41, ethyl 7-[3-({[(4-bromophenyl)amino]carbonyl}amino)phenyl]pyrazolo[1,5-a]pyrimidine-3-carboxylate], the inhibition at 10 µM stood at 37%. The IC50 under setting [1] is over 10000 nM.
As for `Cc1cnc2c(-c3cccnc3)cnn2c1-c1cccc(NC(=O)c2cccc(C(F)(F)F)c2)c1` [Example 179, N-[3-(6-methyl-3-pyridin-3-ylpyrazolo[1,5-a]pyrimidin-7-yl)phenyl]-3-(trifluoromethyl)benzamide], the IC50 was determined as 650 nM and the inhibition at 10 µM was determined as 90%.
For the molecule `CCOCOCc1ccc(-c2cc3nccc(-c4cccc(NC(=O)c5cccc(C(F)(F)F)c5)c4)n3n2)cc1` [Example 140, N-[3-(2-{4-[(ethoxymethoxy)methyl]phenyl}pyrazolo[1,5-a]pyrimidin-7-yl)phenyl]-3-(trifluoromethyl)benzamide], the inhibition at 10 µM was found to be 39%. Under setting [1], the IC50 was over 10000 nM.
Consider `Cc1ccc(C(=O)Nc2cccc(-c3ccnc4c(-c5cccnc5)cnn34)c2)cc1C(F)(F)F` [Example 169, 4-methyl-N-[3-(3-pyridin-3-ylpyrazolo[1,5-a]pyrimidin-7-yl)phenyl]-3-(trifluoromethyl)benzamide], for which it took 70 nM to reach half-maximal inhibition (IC50) and the inhibition at 10 µM came out at 96%.

The values above are taken from patent US20070219186A1, “Pyrazolo[1,5-A]pyrimidine derivatives and methods of use thereof” (priority 2006, published 2007).
